Experimental findings from patent US9062078B2, “Substituted 7-azabicyles and their use as orexin receptor modulators” (priority 2013, dated 2015) are described below.

Like-named read-outs stand apart in the source and are kept apart here.

The target in one test is human orexin 2 receptor (Homo sapiens (Human), UniProt O43614). Nature of the test: Human orexin 2 receptor radioligand binding (competitive, [3H]-EMPA, HEK293 cell preparations).
The next test addresses rat orexin 1 receptor (Rattus norvegicus, UniProt P56718). Put plainly: Rat orexin 1 receptor radioligand binding (competitive, [3H]-SB674042, HEK293 cell preparations).
The mark [1] stands for this setting: human orexin 2 receptor, [3H]-EMPA competition binding, read-out: hOX2 Ki (nm).
Setting [2] is: rat orexin 1 receptor, [3H]-SB674042 competition binding, read-out: rOX1 Ki (nm).

Sequence of human orexin 2 receptor (O43614 whole entry): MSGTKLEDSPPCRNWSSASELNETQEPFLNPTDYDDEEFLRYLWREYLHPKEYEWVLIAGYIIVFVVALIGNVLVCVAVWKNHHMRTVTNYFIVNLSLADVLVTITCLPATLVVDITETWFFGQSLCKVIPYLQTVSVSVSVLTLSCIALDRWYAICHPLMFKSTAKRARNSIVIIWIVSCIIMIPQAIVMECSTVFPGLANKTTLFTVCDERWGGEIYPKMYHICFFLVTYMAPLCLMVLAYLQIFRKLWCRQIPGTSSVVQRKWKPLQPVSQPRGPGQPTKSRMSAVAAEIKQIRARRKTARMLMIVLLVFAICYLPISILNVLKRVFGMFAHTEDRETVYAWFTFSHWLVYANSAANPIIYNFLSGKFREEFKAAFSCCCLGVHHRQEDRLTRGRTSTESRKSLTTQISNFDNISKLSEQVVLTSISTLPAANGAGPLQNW

On to `Cc1cc(C)nc(NC2CC3CCC2N3C(=O)c2nc(C)ccc2-c2ncccn2)n1` (racemic) [Example 200, (±)-(2-(((4,6-dimethylpyrimidin-2-yl)amino)-7-azabicyclo[2.2.1]heptan-7-yl)(6-methyl-3-(pyrimidin-2-yl)pyridin-2-yl)methanone], for which the Ki (as a rule, a measure of affinity in units of concentration, obtained from inhibition or displacement) at human orexin 2 receptor (setting [1]) amounted to 0.552 µM; on rat orexin 1 receptor (setting [2]) it was 1100 nM.
Take `Cc1cc(C)nc(NC2CC3CCC2N3C(=O)c2nc(C)ccc2-n2nccn2)n1` (racemic) [Example 201, (±)-(2-((4,6-dimethylpyrimidin-2-yl)amino)-7-azabicyclo[2.2.1]heptan-7-yl)(6-methyl-3-(2H-1,2,3-triazol-2-yl)pyridin-2-yl)methanone]: the Ki was 1.1 µM on human orexin 2 receptor (setting [1]) and 3700 nM on rat orexin 1 receptor (setting [2]).
Consider `Cc1cc(C)nc(NC2CC3CCC2N3C(=O)c2ccccc2-n2nccn2)n1` (racemic) [Example 202, (±)-(2-(2H-1,2,3-triazol-2-yl)phenyl)(2-(((4,6-dimethylpyrimidin-2-yl)amino)-7-azabicyclo[2.2.1]heptan-7-yl)methanone], for which the Ki came out at 0.444 µM on human orexin 2 receptor (hOX2 Ki (nm)) and 760 nM on rat orexin 1 receptor (setting [2]).
In the case of `CCOc1ccc(C)nc1C(=O)N1C2CCC1C(Nc1nc(C)cc(C)n1)C2` (racemic) [Example 203, (±)-(2-((4,6-dimethylpyrimidin-2-yl)amino)-7-azabicyclo[2.2.1]heptan-7-yl)(3-ethoxy-6-methylpyridin-2-yl)methanone], the inhibition constant Ki is 0.49 µM on human orexin 2 receptor (setting [1]) and over 10000 nM at rat orexin 1 receptor (setting [2]).
For `O=C(c1ccccc1-n1nccn1)N1C2CCC1C(Nc1cccc(C(F)(F)F)n1)C2` (racemic) [Example 209, (±)-(2-(2H-1,2,3-triazol-2-yl)phenyl)(2-(6-(trifluoromethyl)pyridin-2-yl)amino)-7-azabicyclo[2.2.1]heptan-7-yl)methanone] the same measures were 0.736 µM and 1100 nM.
On to `O=C(c1ccccc1-n1nccn1)N1C2CCC1C(Nc1ccc(C(F)(F)F)nn1)C2` (racemic) [Example 212, (±)-(2-(2H-1,2,3-triazol-2-yl)phenyl)(2-(6-(trifluoromethyl)pyridazin-3-yl)amino)-7-azabicyclo[2.2.1]heptan-7-yl)methanone], for which the inhibitory constant (Ki) on human orexin 2 receptor (hOX2 Ki (nm)) is 4.9 µM; on rat orexin 1 receptor (setting [2]), 734 nM.
Take `COc1ccc(NC2CC3CCC2N3C(=O)c2ccccc2-n2nccn2)nc1` (racemic) [Example 213, (±)-(2-(2H-1,2,3-triazol-2-yl)phenyl)(2-((5-methoxypyridin-2-yl)amino)-7-azabicyclo[2.2.1]heptan-7-yl)methanone]: the Ki is 7.5 µM at human orexin 2 receptor (setting [1]) and 2800 nM on rat orexin 1 receptor (setting [2]).
In the case of `Cc1ccc(NC2CC3CCC2N3C(=O)c2ccccc2-n2nccn2)nc1` (racemic) [Example 214, (±)-(2-(2H-1,2,3-triazol-2-yl)phenyl)(2-(((5-methylpyridin-2-yl)amino)-7-azabicyclo[2.2.1]heptan-7-yl)methanone], the figures for the Ki at human orexin 2 receptor (hOX2 Ki (nm)) and on rat orexin 1 receptor (rOX1 Ki (nm)) were 3.1 µM and 500 nM, respectively.
Take `O=C(c1ccccc1-n1nccn1)N1C2CCC1C(Nc1ccccn1)C2` (racemic) [Example 215, (±)-(2-(2H-1,2,3-triazol-2-yl)phenyl)(2-(pyridin-2-ylamino)-7-azabicyclo[2.2.1]heptan-7-yl)methanone]: the Ki was found to be 9 µM on human orexin 2 receptor (setting [1]) and 1700 nM on rat orexin 1 receptor (setting [2]).
Take `COc1c(F)cccc1C(=O)N1C2CCC1C(Nc1ccc(Br)cn1)C2` (racemic) [Example 218, (±)-(2-((5-bromopyridin-2-yl)amino)-7-azabicyclo[2.2.1]heptan-7-yl)(3-fluoro-2-methoxyphenyl)methanone]: the inhibition constant Ki on human orexin 2 receptor (setting [1]) stood at 6.7 µM; at rat orexin 1 receptor (rOX1 Ki (nm)), 2700 nM.
For `CCOc1ccc(C)nc1C(=O)N1C2CCC1C(Nc1ccc(Br)cn1)C2` (racemic) [Example 219, (±)-(2-((5-bromopyridin-2-yl)amino)-7-azabicyclo[2.2.1]heptan-7-yl)(3-ethoxy-6-methylpyridin-2-yl)methanone], the Ki at human orexin 2 receptor (setting [1]) came to 1.7 µM; at rat orexin 1 receptor (setting [2]), 257 nM.
`COc1c(F)cccc1C(=O)N1C2CCC1C(Nc1ncc(C(F)(F)F)cn1)C2` (racemic) [Example 222, (±)-(3-fluoro-2-methoxyphenyl)(2-(5-(trifluoromethyl)pyrimidin-2-yl)amino)-7-azabicyclo[2.2.1]heptan-7-yl)methanone]: the figures for the inhibition constant Ki on human orexin 2 receptor (setting [1]) and on rat orexin 1 receptor (rOX1 Ki (nm)) were over 10 µM and 4800 nM, respectively.
Take `Cc1ccc(-n2nccn2)c(C(=O)N2C3CCC2C(Nc2ncc(C(F)(F)F)cn2)C3)n1` (racemic) [Example 223, (±)-(6-methyl-3-(2H-1,2,3-triazol-2-yl)pyridin-2-yl)(2-((5-(trifluoromethyl)pyrimidin-2-yl)amino)-7-azabicyclo[2.2.1]heptan-7-yl)methanone]: the Ki was 4 µM on human orexin 2 receptor (setting [1]) and 550 nM at rat orexin 1 receptor (rOX1 Ki (nm)).
On to `Cc1ccc(-c2ncccn2)c(C(=O)N2C3CCC2C(Nc2ncc(C(F)(F)F)cn2)C3)n1` (racemic) [Example 225, (±)-(6-methyl-3-(pyrimidin-2-yl)pyridin-2-yl)(2-(5-(trifluoromethyl)pyrimidin-2-yl)amino)-7-azabicyclo[2.2.1]heptan-7-yl)methanone], for which the inhibition constant (Ki) on human orexin 2 receptor (setting [1]) was determined as 3.3 µM; at rat orexin 1 receptor (setting [2]), 530 nM.
Turning to `COc1c(F)cccc1C(=O)N1C2CCC1C(Nc1ncc(C(F)(F)F)cn1)C2` (racemic) [Example 226, (±)-(3-fluoro-2-methoxyphenyl)(2-(5-(trifluoromethyl)pyrimidin-2-yl)amino)-7-azabicyclo[2.2.1]heptan-7-yl)methanone], the Ki was over 10 µM at human orexin 2 receptor (setting [1]) and over 10000 nM on rat orexin 1 receptor (rOX1 Ki (nm)).
As for `Cc1ccc(-n2nccn2)c(C(=O)N2C3CCC2C(Nc2ncc(C(F)(F)F)cn2)C3)n1` (racemic) [Example 228, (±)-(6-methyl-3-(2H-1,2,3-triazol-2-yl)pyridin-2-yl)(2-((5-(trifluoromethyl)pyrimidin-2-yl)amino)-7-azabicyclo[2.2.1]heptan-7-yl)methanone], the values for the Ki at human orexin 2 receptor (setting [1]) and on rat orexin 1 receptor (rOX1 Ki (nm)) were over 10 µM and over 10000 nM, respectively.
On to `Cc1ccc(-n2nccn2)c(C(=O)N2C3CCC2C(Nc2cnc4ccccc4n2)C3)n1` (racemic) [Example 230, (±)-(6-methyl-3-(2H-1,2,3-triazol-2-yl)pyridin-2-yl)(2-(quinoxalin-2-ylamino)-7-azabicyclo[2.2.1]heptan-7-yl)methanone], for which the figures for the Ki on human orexin 2 receptor (hOX2 Ki (nm)) and on rat orexin 1 receptor (rOX1 Ki (nm)) were over 10 µM and over 10000 nM, respectively.
For the compound `COc1c(F)cccc1C(=O)N1C2CCC1C(Nc1ccc(F)cn1)C2` (racemic) [Example 237, (±)-(3-fluoro-2-methoxyphenyl)(2-(((5-fluoropyridin-2-yl)amino)-7-azabicyclo[2.2.1]heptan-7-yl)methanone], the Ki at human orexin 2 receptor (hOX2 Ki (nm)) is over 10 µM; on rat orexin 1 receptor (rOX1 Ki (nm)), over 10000 nM.
Take `O=C(c1cccc(F)c1-c1ncccn1)N1C2CCC1C(Oc1ncc(C(F)(F)F)cn1)C2` (racemic) [Example 286, (±)-(3-fluoro-2-(pyrimidin-2-yl)phenyl)(2-((5-(trifluoromethyl)pyrimidin-2-yl)oxy)-7-azabicyclo[2.2.1]heptan-7-yl)methanone]: the Ki is over 10 µM at human orexin 2 receptor (setting [1]) and over 10000 nM on rat orexin 1 receptor (setting [2]).
Take `Cc1ccc(-c2ncccn2)c(C(=O)N2[C@H]3CC[C@@H]2[C@@H](COc2ccccn2)C3)n1` (single isomer, unassigned) [Example 3B, (6-methyl-3-(pyrimidin-2-yl)pyridin-2-yl)((1R*,2S*,4S*)-2-((pyridin-2-yloxy)methyl)-7-azabicyclo[2.2.1]heptan-7-yl)methanone]: the inhibition constant Ki at human orexin 2 receptor (hOX2 Ki (nm)) was over 10 µM; at rat orexin 1 receptor (rOX1 Ki (nm)), over 10000 nM.
Turning to `COc1c(F)cccc1C(=O)N1C2CCC1C(Nc1cnc3ccccc3n1)C2` (single isomer, unassigned) [Example 206, (±)-(3-fluoro-2-methoxyphenyl)(2-(quinoxalin-2-ylamino)-7-azabicyclo[2.2.1]heptan-7-yl)methanone], the inhibition constant (Ki) at human orexin 2 receptor (setting [1]) amounted to 1.5 µM; at rat orexin 1 receptor (setting [2]), 1200 nM.
With `CCOc1ccc(C)nc1C(=O)N1C2CCC1C(Nc1ncc(C(F)(F)F)cn1)C2` (single isomer, unassigned) [Example 224, (±)-(3-ethoxy-6-methylpyridin-2-yl)(2-(5-(trifluoromethyl)pyrimidin-2-yl)amino)-7-azabicyclo[2.2.1]heptan-7-yl)methanone], the values for the inhibitory constant (Ki) on human orexin 2 receptor (setting [1]) and on rat orexin 1 receptor (setting [2]) were 7.4 µM and 2500 nM, respectively.
For `CCOc1ccc(C)nc1C(=O)N1C2CCC1C(Nc1ncc(C(F)(F)F)cn1)C2` (single isomer, unassigned) [Example 227, (±)-(3-ethoxy-6-methylpyridin-2-yl)(2-(5-(trifluoromethyl)pyrimidin-2-yl)amino)-7-azabicyclo[2.2.1]heptan-7-yl)methanone] the same measures were over 10 µM and over 10000 nM.
As to `CCOc1ccc(C)nc1C(=O)N1C2CCC1C(Nc1cnc3ccccc3n1)C2` (single isomer, unassigned) [Example 229, (±)-(3-ethoxy-6-methylpyridin-2-yl)(2-(quinoxalin-2-ylamino)-7-azabicyclo[2.2.1]heptan-7-yl)methanone], the Ki at human orexin 2 receptor (setting [1]) is over 10 µM; on rat orexin 1 receptor (setting [2]) it was over 10000 nM.
On to `COc1c(F)cccc1C(=O)N1C2CCC1C(Nc1cnc3ccccc3n1)C2` (single isomer, unassigned) [Example 231, (±)-(3-fluoro-2-methoxyphenyl)(2-(quinoxalin-2-ylamino)-7-azabicyclo[2.2.1]heptan-7-yl)methanone], for which the values for the Ki on human orexin 2 receptor (setting [1]) and at rat orexin 1 receptor (setting [2]) were over 10 µM and over 10000 nM, respectively.
Regarding `O=C(c1cccc(F)c1-c1ncccn1)N1C2CCC1C(Oc1ncc(C(F)(F)F)cn1)C2` (single isomer, unassigned) [Example 285, (±)-(3-fluoro-2-(pyrimidin-2-yl)phenyl)(2-(5-(trifluoromethyl)pyrimidin-2-yl)oxy)-7-azabicyclo[2.2.1]heptan-7-yl)methanone], the Ki at human orexin 2 receptor (setting [1]) is over 10 µM; at rat orexin 1 receptor (setting [2]) it was 720 nM.
Regarding `Cc1coc(-c2ccc(C)nc2C(=O)N2[C@@H]3CC[C@H]2[C@H](COc2ccccn2)C3)n1` [Example 178, (6-methyl-3-(4-methyloxazol-2-yl)pyridin-2-yl)((1S,2R,4R)-2-((pyridin-2-yloxy)methyl)-7-azabicyclo[2.2.1]heptan-7-yl)methanone], the inhibition constant (Ki) at human orexin 2 receptor (setting [1]) is over 10 µM; on rat orexin 1 receptor (setting [2]) it was 964 nM.
